Reference: ChEMBL document CHEMBL5335798 (J Med Chem, 2024)

Test: Permeability of compound at pH 7.4 at 200 uM measured after 5 hrs by PAMPA assay

CCC([Se]c1ccc2ccccc2c1)c1nc(N)nc(N2CCN(C)CC2)n1 (stereo unspecified)
Papp at 5 h, 200 µM: 10.5 ×10⁻⁶ cm/s
